Measurements as given in the NIST ThermoML archive (doi:10.1016/j.jct.2012.02.037).

Tests used:
[1] = excess molar enthalpy (molar enthalpy of mixing); xn = mol fraction of the nth substance listed; conditions: 300 K, 101 kPa, Liquid, Flow calorimetry
[2] = refractive index (Na D-line) (dimensionless); conditions: 303.15 K; 101.33 kPa; Liquid; Standard Abbe refractometry
[3] = 303.15 K; 101.33 kPa; Liquid; Vibrating tube method

OC1CCCCC1 [cyclohexanol] + CCC(C)O
[1]
Conditions	excess molar enthalpy [kJ/mol]
x1 = 0.0831	0.0468
x1 = 0.0874	0.0489
x1 = 0.1613	0.0793
x1 = 0.1704	0.0841
x1 = 0.2787	0.119
x1 = 0.3304	0.127
x1 = 0.4131	0.14
x1 = 0.5657	0.15
x1 = 0.6512	0.152
x1 = 0.7441	0.136
x1 = 0.7557	0.134
x1 = 0.8271	0.103
x1 = 0.8352	0.0997
x1 = 0.9129	0.0535
x1 = 0.9201	0.0531

CO [methanol]
Conditions	mass density [kg/m3]	refractive index
[2]	–	1.3255
[3]	781.87	–

OC1CCCCC1 [cyclohexanol] + CO
[1]
Conditions	excess molar enthalpy [kJ/mol]
x1 = 0.0742	0.104
x1 = 0.1422	0.154
x1 = 0.2234	0.196
x1 = 0.2948	0.213
x1 = 0.4871	0.215
x1 = 0.5587	0.194
x1 = 0.6333	0.17
x1 = 0.7266	0.133
x1 = 0.8274	0.0822
x1 = 0.9162	0.0424

OC1CCCCC1 [cyclohexanol] + CCO
[1]
Conditions	excess molar enthalpy [kJ/mol]
x1 = 0.0883	0.0686
x1 = 0.1688	0.118
x1 = 0.2501	0.147
x1 = 0.337	0.166
x1 = 0.456	0.176
x1 = 0.5436	0.177
x1 = 0.6255	0.164
x1 = 0.7119	0.145
x1 = 0.8026	0.117
x1 = 0.9062	0.0671

OC1CCCCC1 [cyclohexanol]
Conditions	mass density [kg/m3]	refractive index
[2]	–	1.4632
[3]	941.36	–

OC1CCCCC1 [cyclohexanol] + CC(C)O
[1]
Conditions	excess molar enthalpy [kJ/mol]
x1 = 0.0817	0.0678
x1 = 0.1653	0.116
x1 = 0.2454	0.149
x1 = 0.3436	0.179
x1 = 0.5462	0.195
x1 = 0.6326	0.189
x1 = 0.7173	0.169
x1 = 0.8036	0.124
x1 = 0.9097	0.0721

CC(C)O [propan-2-ol]
Conditions	mass density [kg/m3]	refractive index
[2]	–	1.3741
[3]	776.71	–

CCO [ethanol]
Conditions	mass density [kg/m3]	refractive index
[2]	–	1.358
[3]	780.82	–

OC1CCCCC1 [cyclohexanol] + CCCO
[1]
Conditions	excess molar enthalpy [kJ/mol]
x1 = 0.0808	0.0244
x1 = 0.1568	0.0445
x1 = 0.2326	0.0631
x1 = 0.3085	0.0731
x1 = 0.3888	0.0843
x1 = 0.4614	0.0946
x1 = 0.547	0.0989
x1 = 0.6359	0.0964
x1 = 0.7223	0.0859
x1 = 0.8063	0.0696
x1 = 0.901	0.0409

CCCCO [butan-1-ol]
Conditions	mass density [kg/m3]	refractive index
[2]	–	1.3962
[3]	801.98	–

CCC(C)O (configuration not stated) [butan-2-ol]
Conditions	mass density [kg/m3]	refractive index
[2]	–	1.394
[3]	798.58	–

CCCO [propan-1-ol]
Conditions	mass density [kg/m3]	refractive index
[2]	–	1.3821
[3]	795.53	–

OC1CCCCC1 [cyclohexanol] + CCCCO
[1]
Conditions	excess molar enthalpy [kJ/mol]
x1 = 0.0976	0.0374
x1 = 0.1867	0.0599
x1 = 0.3025	0.0895
x1 = 0.3622	0.101
x1 = 0.4484	0.113
x1 = 0.5609	0.117
x1 = 0.6402	0.117
x1 = 0.7119	0.109
x1 = 0.7842	0.0922
x1 = 0.785	0.0935
x1 = 0.8549	0.0705
x1 = 0.8747	0.0591
x1 = 0.9059	0.0462
